Reference: ChEMBL document CHEMBL1140351, “Design and synthesis of depeptidized macrocyclic inhibitors of hepatitis C NS3-4A protease using structure-based drug design” (J Med Chem, 2005)

Columns and labels:
NS3 [1] = molecular target: T1, NS3 (Hepatitis C virus, UniProt A3EZJ3); experiment: Ability to inhibit the hydrolysis of chromogenic 4-phenylazophenyl ester from the peptide fragment Ac- DTEDVVP(Nva)-O-4-PAP in a HCV protease continuous assay; design: species or system Hepacivirus hominis
Neutrophil elastase = molecular target: T2, Neutrophil elastase (Homo sapiens, UniProt P08246); experiment: Binding constant towards Human neutrophil elastase HNE protease
T2 sequence (P08246 whole entry): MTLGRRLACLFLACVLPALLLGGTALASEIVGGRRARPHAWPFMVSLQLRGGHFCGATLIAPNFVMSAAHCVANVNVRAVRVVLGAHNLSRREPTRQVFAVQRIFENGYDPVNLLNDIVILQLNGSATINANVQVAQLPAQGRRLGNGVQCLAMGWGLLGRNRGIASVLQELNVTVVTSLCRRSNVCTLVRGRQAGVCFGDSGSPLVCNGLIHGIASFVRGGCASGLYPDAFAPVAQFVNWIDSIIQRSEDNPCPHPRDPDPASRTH

NS3 [2] = molecular target: T1, NS3; experiment: Ability to inhibit the hydrolysis of chromogenic […] ester from the peptide fragment Ac- DTEDVVP(Nva)-O-4-PAP in a HCV protease continuous assay; design: species or system Hepacivirus hominis

T1 sequence (A3EZJ3 whole entry, the tested form may be a part): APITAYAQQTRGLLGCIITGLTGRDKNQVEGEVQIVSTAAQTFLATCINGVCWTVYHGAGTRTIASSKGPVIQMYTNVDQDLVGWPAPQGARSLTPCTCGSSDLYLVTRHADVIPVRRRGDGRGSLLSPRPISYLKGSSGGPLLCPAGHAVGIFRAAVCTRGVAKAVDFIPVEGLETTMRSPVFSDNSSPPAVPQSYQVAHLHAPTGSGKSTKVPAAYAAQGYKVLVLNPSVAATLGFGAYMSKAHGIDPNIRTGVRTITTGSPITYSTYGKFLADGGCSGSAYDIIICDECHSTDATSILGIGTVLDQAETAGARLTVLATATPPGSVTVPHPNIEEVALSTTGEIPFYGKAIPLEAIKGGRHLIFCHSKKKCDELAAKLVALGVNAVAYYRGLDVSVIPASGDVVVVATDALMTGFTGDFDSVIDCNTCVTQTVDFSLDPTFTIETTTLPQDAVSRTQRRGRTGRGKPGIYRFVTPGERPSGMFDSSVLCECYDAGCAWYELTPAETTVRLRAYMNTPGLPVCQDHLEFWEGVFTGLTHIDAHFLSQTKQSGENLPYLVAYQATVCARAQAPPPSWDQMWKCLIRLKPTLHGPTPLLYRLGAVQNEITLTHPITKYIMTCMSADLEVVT

| SMILES | Ki (NS3 [1]) | Ki (Neutrophil elastase) | Ki (NS3 [2]) |
| --- | --- | --- | --- |
| CCC[C@H](NC(=O)[C@@H]1Cc2cccc(c2)Oc2ccc(cc2)C[C@H](NC(C)=O)C(=O)N[C@@H](C2CCCCC2)C(=O)N1)C(=O)C(=O)NCC(=O)N[C@H](C(=O)O)c1ccccc1 | 800 nM | – | – |
| CCC[C@H](NC(=O)[C@@H]1Cc2cccc(c2)Oc2ccc(cc2)CCC(=O)N[C@@H](C2CCCCC2)C(=O)N1)C(=O)C(=O)NCC(=O)N[C@H](C(=O)O)c1ccccc1 | 110 nM | 2900 nM | – |
| CCC[C@H](NC(=O)[C@@H]1Cc2cccc(c2)Oc2ccc(cc2)CCCCC(=O)N[C@@H](C2CCCCC2)C(=O)N1)C(=O)C(=O)NCC(=O)N[C@H](C(=O)O)c1ccccc1 | 160 nM | – | 300 nM |
| CCC[C@H](NC(=O)[C@@H]1Cc2cccc(c2)Oc2ccc(cc2)C[C@H](NC(=O)OC(C)(C)C)C(=O)N[C@@H](C2CCCCC2)C(=O)N1)C(=O)C(=O)NCC(=O)N[C@H](C(=O)O)c1ccccc1 | 7800 nM | – | – |
| CCC[C@H](NC(=O)[C@@H]1Cc2cccc(c2)Oc2ccc(cc2)C[C@H](NC(=O)OC(C)(C)C)C(=O)N[C@@H](C2CCCCC2)C(=O)N1)C(=O)C(=O)NCC(=O)O | 12000 nM | – | – |
| CCC[C@H](NC(=O)[C@@H]1Cc2cccc(c2)Oc2ccc(cc2)CCCC(=O)N[C@@H](C2CCCCC2)C(=O)N1)C(=O)C(=O)NCC(=O)N[C@H](C(=O)O)c1ccccc1 | 300 nM | – | – |
